Results reported in the NIST ThermoML archive (doi:10.1021/je049656o).

Test: mn = molality of the nth substance listed, in mol/kg
Conditions: 298.15 K, 101.33 kPa, Liquid

O=c1cc[nH]c(=O)[nH]1 [2,4(1H,3H)-pyrimidinedione] + CO
Conditions	molar enthalpy of solution [kJ/mol]
m1 = 0.000848	14.9
m1 = 0.000858	15.1
m1 = 0.00105	14
m1 = 0.00109	14
m1 = 0.001223	13.7
m1 = 0.001317	13.7

O=c1[nH]cc(C(F)(F)F)c(=O)[nH]1 [5-(trifluoromethyl)uracil] + CO
Conditions	molar enthalpy of solution [kJ/mol]
m1 = 0.000648	16
m1 = 0.000687	16.5
m1 = 0.000724	15.7
m1 = 0.00076	15.1
m1 = 0.000813	15
m1 = 0.000845	15.8

O=c1[nH]cc(Br)c(=O)[nH]1 [5-bromouracil] + CO
Conditions	molar enthalpy of solution [kJ/mol]
m1 = 0.000472	14.8
m1 = 0.000548	14
m1 = 0.000563	15.6
m1 = 0.00102	15
m1 = 0.001023	15.1
m1 = 0.00125	14.6

Oc1ncc(Cl)c(O)n1 [5-chloro-2,4-pyrimidinedione] + CO
Conditions	molar enthalpy of solution [kJ/mol]
m1 = 0.000652	8.85
m1 = 0.000899	9.62
m1 = 0.000901	9.58
m1 = 0.000954	9.31
m1 = 0.000982	8.83
m1 = 0.001245	8.85

O=c1[nH]cc(F)c(=O)[nH]1 [5-fluoro-2,4(1H,3H)-pyrimidinedione] + CO
Conditions	molar enthalpy of solution [kJ/mol]
m1 = 0.000844	14.5
m1 = 0.000963	14.4
m1 = 0.001039	14.3
m1 = 0.00126	14.3
m1 = 0.001578	14.3
m1 = 0.001848	14.5

O=c1[nH]cc(I)c(=O)[nH]1 [5-iodouracil] + CO
Conditions	molar enthalpy of solution [kJ/mol]
m1 = 0.000481	18.3
m1 = 0.000487	18.2
m1 = 0.000551	17.6
m1 = 0.000618	18.3
m1 = 0.000626	18
m1 = 0.000769	17.6

O=c1cc(Cl)[nH]c(=O)[nH]1 [6-chlorouracil] + CO
Conditions	molar enthalpy of solution [kJ/mol]
m1 = 0.000624	16.8
m1 = 0.000862	17
m1 = 0.000948	17.3
m1 = 0.001116	16.9
m1 = 0.001609	17.9
m1 = 0.00168	17.4
